Laboratory results: patent US20240034761A1, “REGENERATION OF MAMMALIAN TISSUES USING SYNTHETIC IMMODULINS” (priority 2022, published 2024)
Marks after values point to notes of the source that are not given here. Peptide text beside a SMILES is read from it.

Assays:
[1] = Second binding experiment: FITC-HMW-HA binding with holotransferrin, pH and cold competitors; design: key to FITC-HMW-HA binding, +cold LMW-HA / FITC-HMW-HA binding, +cold HMW-HA: fluorescence counts normalized to peptide binding control = 100; conditions: holotransferrin 10 ug/well; for FITC-HMW-HA binding, +cold HMW-HA: HMW-HA 10 ug/well; for FITC-HMW-HA binding, +cold LMW-HA: LMW-HA hexamer 10 ug/well; for FITC-HMW-HA binding, +cold PIP2: excess PIP2 500 ng/well
Experimental: (§1) Effects of pH, PIP2 and size classes: Streptavidin-coated 96-well plates (G-Biosciences, St. Louis, MO) were pre-loaded with biotinylated peptides [see Example 1] at 400 ng/well, at room temperature for 60 minutes. The plate was washed with PBS buffer and then 1 ug FITC-labelled heparin or hyaluronic acid (FITC-HMW-HA) in 100 uL PBS buffer was added per well (all tests done in quadruplicate). Incubation proceeded for 90 minutes at room temperature, followed by two PBS washes. The plate was read in a standard laboratory fluorometer (488/525 nm exitation/[…]) and the counts normalized for immX3 peptide binding=100. Values statistically above background are shown in bold font. **p<0.05 versus immX3AVD.
A second binding experiment was done as above, but using either 6 mM sodium phosphate buffer pH 7.4 or sodium citrate buffer pH 5.2 in the presence of FITC-HMW-HA (1.5 ug/well), holotransferrin (10 ug/well) and excess PIP2 (500 ng/well), LMW-HA (hexamer; 10 ug/well) or HMW-HA (10 ug/well). **p<0.05 versus peptide binding control (=100);

[2] = tested on: THP1-Dual monocyte reporter cell line; assay: THP1-Dual myeloid cell differentiation assay (PMA protocol); assay type: cell-based, human; conditions: PMA 24 h, then peptide 0.33 uM or 0.66 uM 24 h
How it was run: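 THP1-Dual monocytes were primed for 24 h with 100 ng/ml PMA, then given peptide (0.33 uM or 0.66 uM) for a further 24 h at 37 degrees C. CCL22 was measured in the supernatants. Adherent cells were stained for surface markers such as CD169, Clec9a or Clec12a with labeled anti-human antibodies.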

[3] = Plate binding of FITC-labelled heparin to immobilised biotinylated peptides; conditions: 400 ng peptide/well, 1 ug FITC-heparin, PBS; normalized to immX3 peptide binding = 100
Experimental: as §1

[4] = tested on: THP1-Dual monocyte reporter cell line; assay: Adjuvant effect of helper molecules on immX3 peptide potency in THP1-Dual assay; assay type: cell-based, human; conditions: immX3 peptide 330 nM, no helper (buffer)
Experimental: (§2) Mammalian cell differentiation assays employed the THP1-Dual monocyte reporter cell line (Invivogen Inc, San Diego, CA) seeded at 2×10e5 cells per well in 96-well plates and cultured at 37 degrees C. in RPMI-1640 growth medium plus 10% fetal bovine serum and 1% penicillin/streptomycin. Cells were subsequently treated for 24 hours with 100 ng/ml Phorbol 12-myristate 13-acetate (PMA protocol; Cayman Chemical Company, Ann Arbor, MI). Peptide (0.33 uM or 0.66 uM, as indicated) was then added, and incubation continued for an additional 24 hours. Culture supernatants were assayed for CCL22. Plates with adherent cells were washed with PBS and assayed for immunoreactivity of surface markers such as CD169, Clec9a or Clec12a using fuorescent tag- or biotin-labeled anti-human antibodies purchased from Miltenyi Biotec (Auburn, CA) and the secondary detection reagent recommended by the manufacturer.
The THP1-Dual cell differentiation assay was carried out as described above in Example 2, using immX3 peptide (330 nM) in all samples plus the indicated helper or inhibitor molecule. Molecules were purched from Cayman Chemical Company (Ann Arbor, MI) or Sigma Chemical Company (St. Louis, MO). AU=arbitrary ELISA units. **p<0.01.

[5] = tested on: Primary human T-cells pre-selected for recognizing GAD65 peptide antigen; assay: GAD65-specific primary T-cell differentiation on peptide-treated THP1-Dual cells; assay type: cell-based; conditions: peptide 0.66 uM, GAD65 1 ug/ml
Experimental: as §2
Another non-myeloid lineage was also tested. Primary human T-cells pre-selected for recognizing GAD65 peptide antigen, and the peptide antigen itself were purchased from Cellero LLC (Memphis, TN). THP1-Dual cells were treated with both GAD65 peptide antigen (1 ug/ml) and immodulin peptide (0.66 uM) using the protocol described in Example 2. After completion of the myeloid cell differentiation step (24 hours), supernatants were collected and 100,000 primary T-cells were added to each well in RPMI-1640 medium (100 uL per well). Plates were incubated for an additional 96 hours and cell extracts were prepared using CellLytic-M reagent (Sigma Chemical Co., St Louis, MO). Supernatants were assayed for CCL22, IL-10 and TGFbeta, and cell extracts assayed for FoxP3, all by ELISA using reagents from R&D Systems, Minneapolis, MN. The results are shown in the table below (**p<0.05 vs immX3AVD, set to=100): […]

[6] = tested on: C2C12 myoblastic cell line; assay: C2C12 myoblast differentiation, creatine kinase; assay type: cell-based; conditions: 0.66 uM peptide, 96 hours, relative to immX3AVD = 100
Experimental: Differentiation assays employed the C2C12 myoblastic cell line (ATCC, Manassas, VA) seeded at 2×10e5 cells per well in 96-well plates and cultured at 37 degrees C. in DMEM growth medium plus 10% fetal bovine serum and 1% penicillin/streptomycin. For differentiation, 10% fetal bovine serum was replaced with 2% horse serum. 0.66 uM peptide was then added, and incubation continued for an additional 96 hours. Plates with adherent cells were washed with PBS, lysed with Lytic-M buffer (Sigma Chemical Company, St. Louis, MO) and the lysates were assayed for creatine kinase using a kit purchased from Bioassay Systems (Cat. #ECPK-100, Hayward, CA). Effects were visually confirmed with microscopy tracking myotube formation. Results were expressed as units per milliliter relative to the control immX3AVD peptide, and p values were also calculated and shown relative to control immX3AVD peptide (** p<0.05 versus immX3AVD control; avg±SD).

[7] = Plate binding of FITC-labelled hyaluronic acid to immobilised biotinylated peptides; conditions: 400 ng peptide/well, 1 ug FITC-HMW-HA, PBS; normalized to immX3 peptide binding = 100
Experimental: as §1

CC(C)[C@H](NC(=O)[C@H](C)NC(=O)[C@H](Cc1c[nH]c2ccccc12)NC(=O)[C@H](CS)NC(=O)[C@H](Cc1ccccc1)NC(=O)CNC(=O)[C@H](CCCNC(=N)N)NC(=O)[C@H](CCCCN)NC(=O)[C@H](CCCNC(=N)N)NC(=O)CNC(=O)[C@H](CCCCN)NC(=O)[C@H](CO)NC(=O)[C@@H]1CCCN1C(=O)[C@H](CCCNC(=N)N)NC(=O)[C@H](CS)NC(=O)[C@H](CCC(N)=O)NC(=O)[C@H](CCCCN)NC(=O)[C@H](CCCCN)NC(=O)[C@H](CCCCN)NC(=O)[C@H](Cc1ccc(O)cc1)NC(=O)[C@H](Cc1ccccc1)NC(=O)CNC(=O)[C@H](CCCCN)NC(=O)[C@@H](N)CCCCN)C(=O)N[C@@H](CC(=O)O)C(=O)O [immX3AVD] (H-KKGFYKKKQCRPSKGRKRGFCWAVD-OH)
FITC-HMW-HA binding, CONTROL ([1]; pH 5.2): 140.0 ± 16.7** | FITC-HMW-HA binding, +cold HMW-HA ([1]; pH 5.2): 12.5 ± 7.1** | FITC-HMW-HA binding, +cold LMW-HA ([1]; pH 5.2): 100.6 ± 15.9 | FITC-HMW-HA binding, +cold PIP2 ([1]; pH 5.2): 92.2 ± 29.4 | FITC-HMW-HA binding, +cold HMW-HA ([1]; pH 7.4): 18.5 ± 3.7** | FITC-HMW-HA binding, +cold LMW-HA ([1]; pH 7.4): 92.6 ± 11.8** | FITC-HMW-HA binding, +cold PIP2 ([1]; pH 7.4): 10.4 ± 8.2** | FITC-HMW-HA binding, CONTROL ([1]; pH 7.4, peptide binding control = 100): 100.0 ± 8.3 | CD169+ (AU) ([2]; relative to immX3AVD = 100): 100 AU | Clec12A(AU) ([2]; relative to immX3AVD = 100): 100 AU | CCL22 ([2]; culture supernatant): 282.4 ± 18.4 pg/mL | Heparin binding (fluorescence counts) [3]: 100.0 ± 4.7 | CD169 (AU) [4]: 100.0 ± 4.9 AU | FoxP3 (AU) ([5]; cell extracts, immX3AVD = 100): 100.0 ± 20.5 AU | CCL22 ([5]; supernatant): 88.8 ± 13.6 pg/mL | IL-10 ([5]; supernatant): 1331 ± 94.3 pg/mL | TGFb ([5]; supernatant): 131.4 ± 41.4 pg/mL | Creatine Kinase Act. ([6]; helper D-raffinose (1 mM)): 140.3 ± 8.3** units per milliliter | Creatine Kinase Act. ([6]; helper GW 3965 (2 uM)): 67.4 ± 5.2** units per milliliter | Creatine Kinase Act. ([6]; helper GW 501516 (2 uM)): 174.2 ± 5.0** units per milliliter | Creatine Kinase Act. ([6]; helper L-ornithine (1 mM)): 161.5 ± 6.5** units per milliliter | Creatine Kinase Act. ([6]; helper Tf (holotransferrin 2 ug/ml)): 120.6 ± 2.5** units per milliliter | Creatine Kinase Act. ([6]; helper Tf + HMW-HA (2 ug/ml)): 33.2 ± 3.2 # units per milliliter | Creatine Kinase Act. ([6]; helper Tf + LMW-HA (2 ug/ml)): 136.7 ± 13.3 units per milliliter | Creatine Kinase Act. ([6]; helper ciprofibrate (2 uM)): 109.4 ± 3.2** units per milliliter | Creatine Kinase Act. ([6]; helper none): 100.0 ± 2.2 units per milliliter | Hyaluronate binding (fluorescence counts) [7]: 100.0 ± 22.8
